Values quoted from earlier work as cited in patent publication US20240033221A1, “LONG-ACTING BUPIVACAINE MICROSPHERE FORMULATIONS” (Scienture, Inc., priority 2020, published 2024).
Structures can show the parent of a compound that is named as a salt.

Conditions: dental injections

## CCCCN1CCCCC1C(=O)Nc1c(C)cccc1C (centres unmarked) [bupivacaine HCl, bupivacaine hydrochloride]
  duration of action: 2 to 8 h
  onset of action: 2 to 10 min
